Patent publication US8217035B2, “Pyrimidine derivatives used as PI-3-kinase inhibitors” (Novartis AG, priority 2006, dated 2012)
Read-outs that look alike come from different tables or passages of the source.

How the values were obtained:
PI3 kinase alpha = PI3 kinase alpha (Homo sapiens, UniProt P42336); assay: PI3K ATP depletion assay (Biological Method 1, Assay 3; KinaseGlo luminescence); format: biochemical; details: ATP depletion assay, read-out: PI3 Kinase Alpha, IC50
Description: The PI3 kinase alpha IC50 values shown in Table 1 were determined according to the ATP depletion assay as disclosed herein in Biological Method 1.
Assay 3: ATP Depletion Assay
Compounds to be tested are dissolved in DMSO and directly distributed into a black 384-well plate at 1.25 μL per well. To start the reaction, 25 μL of 10 nM PI3 kinase and 5 μg/mL 1-alpha-phosphatidylinositol (PI) are added into each well followed by 25 μL of 2 μM ATP. The reaction is performed until approx 50% of the ATP is depleted, and then stopped by the addition of 25 μL of KinaseGlo solution purchased from Promega. The stopped reaction is incubated for 5 minutes and the remaining ATP is then detected via luminescence.

[1] = tested on: A2780 ovarian cancer cells; assay: Cellular proliferation in A2780 cells, Cell Titer Glo (Biological Method 4); format: cell-based; details: Homo sapiens
Description: In addition, many of the compounds of Table 1 were tested to determine their inhibitory activity in a cellular proliferation assay according to Biological Method 4.
The ability of the compounds of the invention to inhibit cellular proliferation were determined by using Cell Titer Glo, a commercially available assay from Promega Corporation. A2780 ovarian cancer cells were seeded in TC treated 96-well plates at a density of 1,000 per well in DMEM, 10% FBS, 1% Sodium Pyruvate, and 1% Penicillin Streptomycin for a minimum of 2 hrs prior to addition of compound. For each concentration of test compound, 2 μl (500×) aliquots of compound or 100% DMSO diluted in 500 μl of culture medium for 2× concentration then diluted 1× on the Cells. Cells were incubated for 72 hrs at 37° C., 5% CO2. After the 72 hour incubation, Cell Titer Glo reagent is added to determine number of viable cells remaining after exposure to the compound, and the EC50 value was calculated. The assay was performed according to the manufacturer's instruction (Promega Corporation, Madison, Wis. USA). Each experimental condition was performed in duplicate.

[2] = ovarian cancer cell line A2780, Biological Method 4

Chain of PI3 kinase alpha (P42336 whole entry): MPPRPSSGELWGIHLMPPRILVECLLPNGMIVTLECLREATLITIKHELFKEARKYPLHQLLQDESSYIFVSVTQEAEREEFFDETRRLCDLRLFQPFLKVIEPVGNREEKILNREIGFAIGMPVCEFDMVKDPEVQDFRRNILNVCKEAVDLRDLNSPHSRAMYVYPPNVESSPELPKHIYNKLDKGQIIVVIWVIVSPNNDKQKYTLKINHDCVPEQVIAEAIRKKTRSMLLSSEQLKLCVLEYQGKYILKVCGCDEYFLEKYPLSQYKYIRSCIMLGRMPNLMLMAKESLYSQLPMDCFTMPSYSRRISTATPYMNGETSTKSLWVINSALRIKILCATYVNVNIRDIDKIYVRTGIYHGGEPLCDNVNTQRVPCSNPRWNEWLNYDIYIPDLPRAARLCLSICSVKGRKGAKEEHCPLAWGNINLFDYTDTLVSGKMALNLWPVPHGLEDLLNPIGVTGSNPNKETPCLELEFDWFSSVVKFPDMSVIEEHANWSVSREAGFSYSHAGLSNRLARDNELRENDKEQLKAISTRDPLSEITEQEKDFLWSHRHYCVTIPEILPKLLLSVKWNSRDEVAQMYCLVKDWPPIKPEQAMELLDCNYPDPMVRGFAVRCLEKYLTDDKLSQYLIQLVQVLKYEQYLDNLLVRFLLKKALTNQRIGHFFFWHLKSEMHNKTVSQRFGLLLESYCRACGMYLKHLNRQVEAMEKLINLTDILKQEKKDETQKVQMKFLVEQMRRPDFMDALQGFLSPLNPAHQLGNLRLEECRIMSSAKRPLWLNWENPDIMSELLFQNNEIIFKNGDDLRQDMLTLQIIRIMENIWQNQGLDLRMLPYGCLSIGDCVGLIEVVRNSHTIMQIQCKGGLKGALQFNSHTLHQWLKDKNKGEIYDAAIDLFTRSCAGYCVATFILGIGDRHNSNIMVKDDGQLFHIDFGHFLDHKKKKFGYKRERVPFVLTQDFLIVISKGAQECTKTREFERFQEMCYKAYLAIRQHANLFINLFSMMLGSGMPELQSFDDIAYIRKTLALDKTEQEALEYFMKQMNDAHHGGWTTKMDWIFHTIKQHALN
Chain of PI3 kinase alpha (P27986 whole entry partner): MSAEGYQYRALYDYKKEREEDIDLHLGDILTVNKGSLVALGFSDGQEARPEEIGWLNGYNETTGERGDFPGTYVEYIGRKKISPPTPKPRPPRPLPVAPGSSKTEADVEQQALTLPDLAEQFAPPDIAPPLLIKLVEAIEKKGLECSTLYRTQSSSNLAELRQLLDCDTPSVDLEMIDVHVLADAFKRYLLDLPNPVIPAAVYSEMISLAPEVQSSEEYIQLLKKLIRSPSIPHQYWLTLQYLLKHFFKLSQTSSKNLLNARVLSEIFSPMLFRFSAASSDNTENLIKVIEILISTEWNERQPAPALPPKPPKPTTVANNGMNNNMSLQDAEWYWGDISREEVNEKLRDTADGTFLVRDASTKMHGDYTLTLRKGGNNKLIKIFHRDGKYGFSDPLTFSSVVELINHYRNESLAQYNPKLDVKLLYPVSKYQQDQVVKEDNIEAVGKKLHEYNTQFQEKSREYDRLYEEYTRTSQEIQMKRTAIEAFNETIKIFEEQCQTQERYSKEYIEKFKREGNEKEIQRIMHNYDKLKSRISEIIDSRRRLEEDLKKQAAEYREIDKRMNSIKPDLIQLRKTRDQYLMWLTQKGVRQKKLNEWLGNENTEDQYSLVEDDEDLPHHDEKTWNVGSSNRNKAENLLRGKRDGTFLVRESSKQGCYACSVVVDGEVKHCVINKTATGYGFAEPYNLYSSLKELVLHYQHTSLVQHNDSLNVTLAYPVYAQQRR

| Structure (SMILES) | IC50 (PI3 kinase alpha) | EC50 ([1]; ovarian cancer cell line A2780) | IC50 (PI3 kinase alpha; Biological Method 1) | EC50 [1, 2] |
| --- | --- | --- | --- | --- |
| CN(c1cc(-c2cnc(N)nc2)nc(N2CCOCC2)n1)C1CCOCC1 [Compound 6] | < 1000 nM | < 10000 nM |  |  |
| COCCNc1cc(-c2cnc(N)nc2)nc(N2CCOCC2)n1 [Compound 14] | < 1000 nM | < 1000 nM |  |  |
| CC(C)(C)Nc1cc(-c2cnc(N)nc2)nc(N2CCOCC2)n1 [Compound 16] | < 1000 nM | < 1000 nM |  |  |
| Nc1cc(C(F)(F)F)c(-c2cc(N3CCCCC3=O)nc(N3CCOCC3)n2)cn1 [Compound 17] | < 1000 nM | < 1000 nM |  |  |
| Nc1cc(C(F)(F)F)c(-c2cc(N3CCN(c4ccccc4)C3=O)nc(N3CCOCC3)n2)cn1 [Compound 18] | < 1000 nM | < 1000 nM |  |  |
| CC(=O)N1CCC(Oc2cc(-c3cnc(N)cc3C(F)(F)F)nc(N3CCOCC3)n2)CC1 [Compound 19] | < 1000 nM | < 1000 nM |  |  |
| CC(C)(C)OC(=O)N1CCC[C@H](Oc2cc(-c3cnc(N)cc3C(F)(F)F)nc(N3CCOCC3)n2)C1 [Compound 20] | < 1000 nM | < 1000 nM |  |  |
| CC(=O)N1CC[C@H](Oc2cc(-c3cnc(N)cc3C(F)(F)F)nc(N3CCOCC3)n2)C1 [Compound 22] | < 1000 nM | < 10000 nM |  |  |
| Nc1cc(C(F)(F)F)c(-c2cc(O[C@H]3CCOC3)nc(N3CCOCC3)n2)cn1 [Compound 26] | < 1000 nM | < 10000 nM |  |  |
| Nc1ncc(-c2cc(Nc3nccc(C(F)(F)F)n3)nc(N3CCOCC3)n2)c(C(F)(F)F)n1 [Compound 216] |  |  | < 1000 nM | < 10000 nM |
| Nc1cc(C(F)(F)F)c(-c2cc(Oc3ccc4ncccc4c3)nc(N3CCOCC3)n2)cn1 [Compound 217] |  |  | < 1000 nM | < 10000 nM |
| CCN(CC)C(=O)Cc1csc(Nc2cc(-c3cnc(N)cc3C(F)(F)F)nc(N3CCOCC3)n2)n1 [Compound 218] |  |  | < 1000 nM | < 10000 nM |
| Nc1cc(Cl)c(-c2cc(Nc3ccncc3C(F)(F)F)nc(N3CCOCC3)n2)cn1 [Compound 219] |  |  | < 1000 nM | < 10000 nM |
| Nc1cc(C(F)(F)F)c(-c2cc(N3CCOC(CN4CCCC4)C3)nc(N3CCOCC3)n2)cn1 (stereo not drawn) [Compound 220] |  |  | < 10000 nM | < 25000 nM |
| Nc1cc(C(F)(F)F)c(-c2cc(N3CCCOCC3)nc(N3CCOCC3)n2)cn1 [Compound 221] |  |  | < 1000 nM | < 10000 nM |
| CN(C)CCOc1ccc(-c2cc(-c3cnc(N)nc3)nc(N3CCOCC3)n2)cn1 [Compound 223] |  |  | < 1000 nM | < 10000 nM |
| Nc1ccc(-c2cc(Nc3ccc4cn[nH]c4c3)nc(N3CCOCC3)n2)cn1 [Compound 227] |  |  | < 1000 nM | < 10000 nM |
| Nc1ncc(-c2cc(C(=O)Nc3ccncc3)nc(N3CCOCC3)n2)cn1 [Compound 230] |  |  | < 1000 nM | < 10000 nM |
| Nc1ncc(-c2cc(C(=O)Nc3cccnc3)nc(N3CCOCC3)n2)cn1 [Compound 231] |  |  | < 1000 nM | < 10000 nM |
| CNC(=O)c1cc(-c2cnc(N)nc2)nc(N2CCOCC2)n1 [Compound 232] |  |  | < 1000 nM | < 25000 nM |
| Nc1ncc(-c2cc(C(=O)N3CCNCC3)nc(N3CCOCC3)n2)cn1 [Compound 233] |  |  | < 1000 nM | < 10000 nM |
| Nc1ncc(-c2cc(C(=O)N3CCCCC3)nc(N3CCOCC3)n2)cn1 [Compound 234] |  |  | < 1000 nM | < 25000 nM |
| CN1CCN(C(=O)c2cc(-c3cnc(N)nc3)nc(N3CCOCC3)n2)CC1 [Compound 235] |  |  | < 1000 nM | < 10000 nM |
| N#Cc1cc(-c2cnc(N)nc2)nc(N2CCOCC2)n1 [Compound 237] |  |  | < 1000 nM | < 10000 nM |
| CS(=O)(=O)c1cccc(Nc2cc(-c3cnc(N)cc3C(F)(F)F)nc(N3CCOCC3)n2)c1 [Compound 238] |  |  | < 1000 nM | < 10000 nM |
| N#Cc1ccnc(Nc2cc(-c3cnc(N)cc3C(F)(F)F)nc(N3CCOCC3)n2)c1 [Compound 239] |  |  | < 1000 nM | < 10000 nM |
| Nc1cc(C(F)(F)F)c(-c2cc(Nc3cc(Cl)ccn3)nc(N3CCOCC3)n2)cn1 [Compound 241] |  |  | < 1000 nM | < 10000 nM |
| NC(=O)c1ccnc(Nc2cc(-c3cnc(N)cc3C(F)(F)F)nc(N3CCOCC3)n2)c1 [Compound 242] |  |  | < 1000 nM | < 10000 nM |

| Structure (SMILES) | IC50 (PI3 kinase alpha) | EC50 ([1]; ovarian cancer cell line A2780) | IC50 (PI3 kinase alpha; Biological Method 1) | EC50 [1, 2] |
| --- | --- | --- | --- | --- |
| Nc1ccc(-c2cc(-c3ccc(N)nc3)nc(N3CCOCC3)n2)cn1 [Compound 245] |  |  | < 1000 nM | < 10000 nM |
| Nc1ncc(-c2cc(Nc3cnc4ccccc4c3)nc(N3CCOCC3)n2)c(=O)[nH]1 [Compound 470] |  | < 10000 nM |  |  |
| Nc1cc(C(F)(F)F)c(-c2cc(N3CCOCC3c3ccccc3)nc(N3CCOCC3)n2)cn1 (stereo not drawn) [Compound 486] | < 1000 nM |  |  |  |
| Nc1cc(C(F)(F)F)c(-c2cc(N3CCC(F)CC3)nc(N3CCOCC3)n2)cn1 [Compound 487] | < 1000 nM |  |  |  |
| Nc1cc(C(F)(F)F)c(-c2cc(Nc3ccc(NCC(=O)O)nc3)nc(N3CCOCC3)n2)cn1 [Compound 490] | < 1000 nM |  |  |  |
| CS(=O)(=O)Nc1cc(N)ncc1-c1cc(Nc2cnc3ccccc3c2)nc(N2CCOCC2)n1 [Compound 492] | < 1000 nM |  |  |  |
| Nc1ccc(-c2cc(Nc3cnc4c(Cl)ccc(OCCN5CCCC5=O)c4c3)nc(N3CCOCC3)n2)cn1 [Compound 493] | < 1000 nM |  |  |  |
| Nc1ccc(-c2cc(Nc3cnc4ccc(OC(F)(F)F)cc4c3)nc(N3CCOCC3)n2)cn1 [Compound 496] | < 1000 nM |  |  |  |
| Nc1ccc(-c2cc(-c3cccnc3N3CCN(CCO)CC3)nc(N3CCOCC3)n2)cn1 [Compound 498] | < 10000 nM |  |  |  |
| CC(C)N1CCN(c2nc3ccccc3cc2-c2cc(-c3ccc(N)nc3)nc(N3CCOCC3)n2)CC1 [Compound 502] | < 10000 nM |  |  |  |
| CN(C)c1ncccc1-c1cc(-c2ccc(N)nc2)nc(N2CCOCC2)n1 [Compound 504] | < 10000 nM |  |  |  |
| Nc1ccc(-c2cc(-c3ccc(NCCN4CCCC4)nc3)nc(N3CCOCC3)n2)cn1 [Compound 506] | < 1000 nM |  |  |  |
| CC(C)N1CCN(c2ccc(-c3cc(-c4ccc(N)nc4)nc(N4CCOCC4)n3)cn2)CC1 [Compound 507] | < 1000 nM |  |  |  |
| CS(=O)(=O)Nc1cc(-c2ccc(N)nc2)nc(N2CCOCC2)n1 [Compound 510] | < 10000 nM |  |  |  |
| Nc1ccc(-c2ccnc(N3CCOCC3)n2)cn1 [Compound 513] | < 1000 nM |  |  |  |
| CN(C)CCCCNc1cc(-c2cnc(N)nc2)nc(N2CCOCC2)n1 [Compound 517] | < 10000 nM |  |  |  |
| Nc1ncc(-c2cc(N[C@H]3CN4CCC3CC4)nc(N3CCOCC3)n2)cn1 [Compound 519] | < 1000 nM |  |  |  |
| Nc1ncc(-c2cc(O[C@@H]3CCCN(C(=O)c4ccc(F)cc4)C3)nc(N3CCOCC3)n2)c(N)n1 [Compound 525] | < 1000 nM |  |  |  |
| CC(C)C(=O)N1CC[C@H](Oc2cc(-c3cnc(N)cc3C(F)(F)F)nc(N3CCOCC3)n2)C1 [Compound 533] | < 10000 nM |  |  |  |
| Nc1cc(C(F)(F)F)c(-c2cc(O[C@@H]3CCN(C(=O)OCc4ccccc4)C3)nc(N3CCOCC3)n2)cn1 [Compound 535] | < 1000 nM |  |  |  |
| Nc1cc(C(F)(F)F)c(-c2cc(O[C@@H]3CCN(C(=O)c4ccccc4)C3)nc(N3CCOCC3)n2)cn1 [Compound 536] | < 1000 nM |  |  |  |
| CC(C)C(=O)N1CC[C@@H](Oc2cc(-c3cnc(N)cc3C(F)(F)F)nc(N3CCOCC3)n2)C1 [Compound 537] | < 1000 nM |  |  |  |
| CC(C)OC(=O)N1CC[C@@H](Oc2cc(-c3cnc(N)cc3C(F)(F)F)nc(N3CCOCC3)n2)C1 [Compound 538] | < 1000 nM |  |  |  |
| Nc1cc(C(F)(F)F)c(-c2cc(CNC(=O)OC3CCOC3)nc(N3CCOCC3)n2)cn1 (stereo not drawn) [Compound 542] | < 1000 nM |  |  |  |
| N#Cc1cnc(Nc2cc(-c3cnc(N)nc3C(F)(F)F)nc(N3CCOCC3)n2)s1 [Compound 545] |  | < 25000 nM |  |  |
| Cc1c(-c2cnc(N)nc2)nc(N2CCOCC2)nc1-c1ccccc1S(=O)(=O)NC(C)(C)C [Compound 547] | < 10000 nM |  |  |  |
| Nc1ccc(-c2cc(N3CCOCC3)nc(N3CCOCC3)n2)c(F)n1 [Compound 550] |  | < 10000 nM |  |  |
